Results taken from patent US4882313A, “Carboxamide derivatives of glycopeptides” (SmithKline Beckman Corporation, priority 1987, dated 1989).

How the values were obtained:
Test in all cases: standard microtiter assay, minimum inhibitory concentration
Format in all cases: cell-based
Staphylococcus aureus = conditions: for minimum inhibitory concentration of antibiotic, Test Organism 1: Test Organism 1, strain of Staphylococcus aureus; for minimum inhibitory concentration of antibiotic, Test Organism 2: Test Organism 2, strain of Staphylococcus aureus; for minimum inhibitory concentration of antibiotic, Test Organism 3: Test Organism 3, strain of Staphylococcus aureus; for minimum inhibitory concentration of antibiotic, Test Organism 4: Test Organism 4, strain of Staphylococcus aureus; for minimum inhibitory concentration of antibiotic, Test Organism 5: Test Organism 5, strain of Staphylococcus aureus
Source text: (§1) Representative results of standard microtiter assays are reported in Table 1 which follows, as the minimum inhibitory concentration of antibiotic (mg/ml). In Table 1, test organisms 1-5 were different strains of Staphylococcus aureus; 6, 8, 11, 13 and 14 were different strains of Staphylococcus epidermidis; 7 was a Staphylococcus haemolyticus; 9 and 10 were different strains of Streptococcus faecalis; and 12 was a Staphylococcus saprophyticus.

[1] = tested on: Staphylococcus haemolyticus; conditions: Test Organism 7, Staphylococcus haemolyticus
Source text: as §1

[2] = tested on: Staphylococcus saprophyticus; conditions: Test Organism 12, Staphylococcus saprophyticus
Source text: as §1

Streptococcus faecalis = conditions: for minimum inhibitory concentration of antibiotic, Test Organism 9: Test Organism 9, strain of Streptococcus faecalis; for minimum inhibitory concentration of antibiotic, Test Organism 10: Test Organism 10, strain of Streptococcus faecalis
Source text: as §1

[3] = tested on: Staphylococcus epidermidis; design: minimum inhibitory concentration of antibiotic, Test Organism 8: unit not given here; conditions: for minimum inhibitory concentration of antibiotic, Test Organism 6: Test Organism 6, strain of Staphylococcus epidermidis; for minimum inhibitory concentration of antibiotic, Test Organism 8: Test Organism 8, strain of Staphylococcus epidermidis; for minimum inhibitory concentration of antibiotic, Test Organism 11: Test Organism 11, strain of Staphylococcus epidermidis; for minimum inhibitory concentration of antibiotic, Test Organism 13: Test Organism 13, strain of Staphylococcus epidermidis; for minimum inhibitory concentration of antibiotic, Test Organism 14: Test Organism 14, strain of Staphylococcus epidermidis
Source text: as §1

| Molecule | minimum inhibitory concentration of antibiotic, Test Organism 1 (Staphylococcus aureus) | minimum inhibitory concentration of antibiotic, Test Organism 2 (Staphylococcus aureus) | minimum inhibitory concentration of antibiotic, Test Organism 3 (Staphylococcus aureus) | minimum inhibitory concentration of antibiotic, Test Organism 4 (Staphylococcus aureus) | minimum inhibitory concentration of antibiotic, Test Organism 5 (Staphylococcus aureus) | minimum inhibitory concentration of antibiotic, Test Organism 7 [1] | minimum inhibitory concentration of antibiotic, Test Organism 12 [2] | minimum inhibitory concentration of antibiotic, Test Organism 9 (Streptococcus faecalis) | minimum inhibitory concentration of antibiotic, Test Organism 10 (Streptococcus faecalis) | minimum inhibitory concentration of antibiotic, Test Organism 6 [3] | minimum inhibitory concentration of antibiotic, Test Organism 8 [3] | minimum inhibitory concentration of antibiotic, Test Organism 11 [3] | minimum inhibitory concentration of antibiotic, Test Organism 13 [3] | minimum inhibitory concentration of antibiotic, Test Organism 14 [3] |
| --- | --- | --- | --- | --- | --- | --- | --- | --- | --- | --- | --- | --- | --- | --- |
| CNC1C(=O)NC2C(=O)NC(C(=O)NC3C(=O)NC4C(=O)NC(C(=O)NC(C(=O)O)c5cc(O)cc(O)c5-c5cc4ccc5O)C(O)c4cc(Cl)c(c(Cl)c4)Oc4cc3cc(c4O)Oc3ccc(cc3Cl)C2O)c2cc(cc(O)c2Cl)Oc2cc1ccc2O (stereo not drawn) [Compound 2a, Ardacin aglycone, reference compound] | 800 µg/mL | 800 µg/mL | 400 µg/mL | 400 µg/mL | 800 µg/mL | 6300 µg/mL | 1600 µg/mL | 800 µg/mL | 800 µg/mL | 800 µg/mL | 3.1 | 1600 µg/mL | 1800 µg/mL | 800 µg/mL |
| CNC1C(=O)NC2C(=O)NC(C(=O)NC3C(=O)NC4C(=O)NC(C(=O)NC(C(=O)O)c5cc(O)cc(OC6OC(CO)C(O)C(O)C6O)c5-c5cc4ccc5O)C(O)c4cc(Cl)c(c(Cl)c4)Oc4cc3cc(c4O)Oc3ccc(cc3Cl)C2O)c2cc(cc(O)c2Cl)Oc2cc1ccc2O (stereo not drawn) [Compound 2b, Ardacin mannosylaglycone, reference compound] | 1600 µg/mL | 1600 µg/mL | 800 µg/mL | > 1600 µg/mL | 1600 µg/mL | 25000 µg/mL | 3100 µg/mL | 800 µg/mL | 800 µg/mL | 12500 µg/mL | 6.3 | 25000 µg/mL | 6300 µg/mL |  |
| CNC1C(=O)NC2C(=O)NC(C(=O)NC3C(=O)NC4C(=O)NC(C(=O)NC(C(=O)NCCN)c5cc(O)cc(O)c5-c5cc4ccc5O)C(O)c4cc(Cl)c(c(Cl)c4)Oc4cc3cc(c4O)Oc3ccc(cc3Cl)C2O)c2cc(cc(O)c2Cl)Oc2cc1ccc2O (stereo not drawn) [Compound 2e, Ardacin aglycone-(2-aminoethyl amide)] | 50 µg/mL | 50 µg/mL | 50 µg/mL | 200 µg/mL | 50 µg/mL | 50 µg/mL | 50 µg/mL | 50 µg/mL | 100 µg/mL | 100 µg/mL | 0.1 | 100 µg/mL | 50 µg/mL | 50 µg/mL |
| CNC1C(=O)NC2C(=O)NC(C(=O)NC3C(=O)NC4C(=O)NC(C(=O)NC(C(=O)O)c5cc(O)cc(OC6OC(CO)C(O)C(O)C6O)c5-c5cc4ccc5O)C(O)c4ccc(c(Cl)c4)Oc4cc3cc(c4OC3OC(C(=O)O)C(O)C(O)C3NC(=O)CCCCCCCCC(C)C)Oc3ccc(cc3)C2O)c2cc(cc(O)c2Cl)Oc2cc1ccc2O (stereo not drawn) [Compound 2p, AAJ-271 C1, reference compound] | 400 µg/mL | 400 µg/mL | 200 µg/mL | 800 µg/mL | 400 µg/mL | 6300 µg/mL | 1600 µg/mL | 6300 µg/mL | 6300 µg/mL | 6300 µg/mL | 25 | 25000 µg/mL | 6300 µg/mL | 6300 µg/mL |
| CN[C@H](CC(C)C)C(=O)N[C@H]1C(=O)N[C@@H](CC(N)=O)C(=O)N[C@H]2C(=O)N[C@H]3C(=O)N[C@H](C(=O)N[C@H](C(=O)O)c4cc(O)cc(O)c4-c4cc3ccc4O)[C@H](O)c3ccc(c(Cl)c3)Oc3cc2cc(c3O[C@@H]2O[C@H](CO)[C@@H](O)[C@H](O)[C@H]2O[C@H]2C[C@](C)(N)[C@H](O)[C@H](C)O2)Oc2ccc(cc2Cl)[C@H]1O [Vancomycin, reference compound] | 3100 µg/mL | 1600 µg/mL | 1600 µg/mL | > 3100 µg/mL | 1600 µg/mL | 3100 µg/mL | 3100 µg/mL | 3100 µg/mL | 3100 µg/mL | 3100 µg/mL |  | 3100 µg/mL | 3100 µg/mL | 3100 µg/mL |
| AAJ-271 C2 [Compound 2r, reference compound] | 800 µg/mL | 800 µg/mL | 200 µg/mL | 1600 µg/mL | 800 µg/mL | 12500 µg/mL | 1600 µg/mL | 200 µg/mL | 200 µg/mL | 25000 µg/mL | 12.5 | 25000 µg/mL | 6300 µg/mL | 3100 µg/mL |
| Ardacin A [Compound 2i, reference compound] | 6300 µg/mL | 3100 µg/mL | 800 µg/mL | > 6300 µg/mL | 3100 µg/mL | 25000 µg/mL | 12500 µg/mL | 800 µg/mL | 800 µg/mL | 50000 µg/mL | 25 | 25000 µg/mL | 6300 µg/mL | 5100 µg/mL |
